From ChEMBL document CHEMBL1782000, “Thiazole-based chalcones as potent antimicrobial agents. Synthesis and biological evaluation” (2011)

Columns and labels:
[1] = test system: Salmonella typhimurium; assay: Bactericidal activity against Salmonella Typhimurium ATCC 13311 after 24 hrs; format: functional, Salmonella enterica subsp. enterica serovar Typhimurium; settings: Salmonella enterica, ATCC 13311, 24 h
[2] = test system: Aspergillus ochraceus; assay: Antifungal activity against Aspergillus ochraceus ATCC 12066 after 72 hrs by serial dilution method; format: functional; settings: ATCC 12066, 72 h
[3] = test system: Staphylococcus aureus; assay: Antibacterial activity against Staphylococcus aureus ATCC 6538 after 24 hrs by microdilution method; format: functional; settings: ATCC 6538, 24 h
[4] = test system: Enterococcus faecalis; assay: Antibacterial activity against Enterococcus faecalis isolate obtained from human after 24 hrs by microdilution method; format: functional
[5] = test system: Talaromyces funiculosus; assay: Antifungal activity against Penicillium funiculosum ATCC 36839 after 72 hrs by serial dilution method; format: functional; settings: ATCC 36839, 72 h
[6] = test system: Trichoderma viride; assay: Fungicidal activity against Trichoderma viride IAM 5061 after 72 hrs; format: functional; settings: IAM 5061, 72 h
[7] = test system: Aspergillus fumigatus; assay: Antifungal activity against Aspergillus fumigatus plant isolate after 72 hrs by serial dilution method; format: functional
[8] = test system: Trichoderma viride; assay: Antifungal activity against Trichoderma viride IAM 5061 after 72 hrs by serial dilution method; format: functional; settings: IAM 5061, 72 h
[9] = test system: Penicillium ochrochloron; assay: Antifungal activity against Penicillium ochrochloron ATCC 9112 after 72 hrs by serial dilution method; format: functional; settings: ATCC 9112, 72 h
[10] = test system: Talaromyces funiculosus; assay: Fungicidal activity against Penicillium funiculosum ATCC 36839 after 72 hrs; format: functional; settings: ATCC 36839, 72 h
[11] = test system: Pseudomonas aeruginosa; assay: Bactericidal activity against Pseudomonas aeruginosa ATCC 27853 after 24 hrs; format: functional; settings: ATCC 27853, 24 h
[12] = test system: Bacillus cereus; assay: Antibacterial activity against Bacillus cereus clinical isolate after 24 hrs by microdilution method; format: functional
[13] = test system: Micrococcus flavus; assay: Bactericidal activity against Micrococcus flavus ATCC 10240 after 24 hrs; format: functional; settings: ATCC 10240, 24 h
[14] = test system: Aspergillus versicolor; assay: Antifungal activity against Aspergillus versicolor ATCC 11730 after 72 hrs by serial dilution method; format: functional; settings: ATCC 11730, 72 h
[15] = Antifungal activity against Fusarium sporotrichioides IMT 496 after 72 hrs by serial dilution method; format: functional
[16] = test system: Aspergillus versicolor; assay: Fungicidal activity against Aspergillus versicolor ATCC 11730 after 72 hrs; format: functional; settings: ATCC 11730, 72 h
[17] = test system: Escherichia coli; assay: Antibacterial activity against Escherichia coli ATCC 35210 after 24 hrs by microdilution method; format: functional; settings: ATCC 35210, 24 h
[18] = test system: Micrococcus flavus; assay: Ratio of Ampicillin MIC to compound MIC for Micrococcus flavus ATCC 10240 after 24 hrs; format: functional
[19] = test system: Staphylococcus aureus; assay: Bactericidal activity against Staphylococcus aureus ATCC 6538 after 24 hrs; format: functional; settings: ATCC 6538, 24 h
[20] = test system: Listeria monocytogenes; assay: Bactericidal activity against Listeria monocytogenes NCTC 7973 after 24 hrs; format: functional; settings: NCTC 7973, 24 h
[21] = test system: Bacillus cereus; assay: Bactericidal activity against Bacillus cereus clinical isolate after 24 hrs; format: functional
[22] = test system: Aspergillus fumigatus; assay: Fungicidal activity against Aspergillus fumigatus plant isolate after 72 hrs; format: functional
[23] = test system: Listeria monocytogenes; assay: Antibacterial activity against Listeria monocytogenes NCTC 7973 after 24 hrs by microdilution method; format: functional; settings: NCTC 7973, 24 h
[24] = test system: Aspergillus niger; assay: Fungicidal activity against Aspergillus niger ATCC 6275 after 72 hrs; format: functional; settings: ATCC 6275, 72 h
[25] = test system: Pseudomonas aeruginosa; assay: Antibacterial activity against Pseudomonas aeruginosa ATCC 27853 after 24 hrs by microdilution method; format: functional; settings: ATCC 27853, 24 h
[26] = test system: Escherichia coli; assay: Bactericidal activity against Escherichia coli ATCC 35210 after 24 hrs; format: functional; settings: ATCC 35210, 24 h
[27] = test system: Penicillium ochrochloron; assay: Fungicidal activity against Penicillium ochrochloron ATCC 9112 after 72 hrs; format: functional; settings: ATCC 9112, 72 h
[28] = test system: Enterococcus faecalis; assay: Bactericidal activity against Enterococcus faecalis isolate obtained from human after 24 hrs; format: functional
[29] = test system: Micrococcus flavus; assay: Antibacterial activity against Micrococcus flavus ATCC 10240 after 24 hrs by microdilution method; format: functional; settings: ATCC 10240, 24 h
[30] = test system: Aspergillus niger; assay: Antifungal activity against Aspergillus niger ATCC 6275 after 72 hrs by serial dilution method; format: functional; settings: ATCC 6275, 72 h
[31] = test system: Aspergillus ochraceus; assay: Fungicidal activity against Aspergillus ochraceus ATCC 12066 after 72 hrs; format: functional; settings: ATCC 12066, 72 h
[32] = test system: Fusarium sporotrichioides; assay: Fungicidal activity against Fusarium sporotrichioides IMT 496 after 72 hrs; format: functional; settings: IMT 496, 72 h
[33] = test system: Salmonella typhimurium; assay: Antibacterial activity against Salmonella Typhimurium ATCC 13311 after 24 hrs by microdilution method; format: functional, Salmonella enterica subsp. enterica serovar Typhimurium; settings: Salmonella enterica, ATCC 13311, 24 h
[34] = test system: Enterococcus faecalis; assay: Ratio of Ampicillin MIC to compound MIC for Enterococcus faecalis after 24 hrs; format: functional

CNc1nc(C)c(C(=O)/C=C/c2ccc(Cl)cc2)s1
170 µM: MIC [5] | MIC [7] | MIC [8] | MIC [14] | MIC [30] | MFC [32]
17: MIC (10'-2 umol/ml) [15]
3: Ratio [18]
290 µM: MIC [17] | MIC [33]
171 µM: MIC [4]
256 µM: MIC [25]
513 µM: MIC [3] | MBC [20] | MBC [21] | MFC [27] | MFC [31]
85.4 µM: MIC [29]
342 µM: MBC [1] | MBC [11] | MIC [12] | MBC [13] | MIC [23] | MBC [26] | MBC [28]
340 µM: MIC [2] | MFC [6] | MIC [9] | MFC [10] | MFC [16] | MFC [22] | MFC [24]
684 µM: MBC [19]

CNc1nc(C)c(C(=O)/C=C/c2ccccc2Cl)s1
15.3: MIC (10'-2 umol/ml) [15]
260 µM: MBC [13] | MIC [25]
3: Ratio [34]
612 µM: MFC [10] | MFC [22] | MFC [24]
153 µM: MIC [8] | MIC [14] | MBC [28]
306 µM: MIC [2] | MIC [3] | MIC [5] | MFC [6] | MIC [7] | MIC [9] | MBC [11] | MBC [21] | MIC [23] | MBC [26] | MIC [30] | MIC [33]
229 µM: MIC [12] | MIC [17] | MIC [29]
76.4 µM: MIC [4]
459 µM: MBC [1] | MFC [16] | MBC [19] | MBC [20] | MFC [27] | MFC [31] | MFC [32]

CNc1nc(C)c(C(=O)/C=C/c2ccc(OC)cc2)s1
170 µM: MIC [7] | MIC [8] | MIC [14]
85.4 µM: MIC [29]
171 µM: MIC [4] | MBC [13] | MBC [28]
683 µM: MFC [24]
342 µM: MIC [17] | MBC [19] | MBC [21] | MIC [23] | MIC [25] | MIC [33]
290 µM: MIC [3] | MIC [12]
340 µM: MIC [2] | MIC [5] | MIC [9] | MIC [30]
3: Ratio [18]
513 µM: MBC [1] | MFC [6] | MFC [10] | MBC [11] | MFC [16] | MBC [20] | MFC [22] | MBC [26] | MFC [27] | MFC [31] | MFC [32]
34: MIC (10'-2 umol/ml) [15]
